From paper PMC8111002 (Communications Biology, 2021)
Square brackets hold non-standard residues; d marks the D form. Ends that are not written are not given here. Peptide text beside a SMILES is read from it. βAla = NCCC(=O)O

Legend:
Stx1a = Stx1a (UniProt P08026+P69178); test: cell-based; set-up: species or system Escherichia coli
Stx2a = Stx2a (Escherichia phage 933W, UniProt P09385+P09386); test: cell-based; set-up: species or system Escherichia coli
Stx1a A-subunit = Stx1a A-subunit (Enterobacteria phage H19B, UniProt P08026); test: biochemical; type: binding, Escherichia coli
Stx2a A-subunit = Stx2a A-subunit (Escherichia phage 933W, UniProt P09385); test: biochemical; type: binding, Escherichia coli
A-subunit = type: binding, Escherichia coli
[1] = target: B-subunits of Stx1a and Stx2a; conditions: cited from earlier work
EHEC = conditions: mouse, in vivo; cited from earlier work

Compound CSCC[C@H](NC(=O)[C@H](C)NC(=O)[C@@H](N)CCSC)C(=O)N[C@@H](CCSC)C(=O)NCCC(=O)N[C@@H](CCCNC(=N)N)C(=O)N[C@@H](CCCNC(=N)N)C(=O)N[C@@H](CCCNC(=N)N)C(=O)N[C@@H](CCCNC(=N)N)C(=O)N[C@@H](C)C(N)=O [MMβA-mono] (H-MAMM[βAla]RRRRA-NH2) has an IC50 (Stx1a) of 59.2 µM, an IC50 (Stx2a) of 9.6 µM and a Kd (Stx1a A-subunit) of 0.032 µM. For the same compound, the Kd (Stx2a A-subunit) was 0.05 µM.
With ARRRRA the “inhibition of the binding between MMβA-mono and the A-subunit” value (from here on “inhibition”) (A-subunit) was “efficiently inhibited”.
For Arg-Arg-Arg-Arg (RRRR), the “inhibition” value (A-subunit) was “efficiently inhibited”.
In the case of Arg-Arg-Arg-Arg-Ala (RRRRA), the “inhibition” value (A-subunit) is reported as “efficiently inhibited”.
For “Galα[1-4]-Galβ[1-4]-Glcβ- [free trisaccharide]”, the Kd [1] is given as “mM order”.
In the case of MMARRRR [MMA-tet], the “inhibitory effects against the lethality in EHEC infected mice” value (EHEC) is listed as “potent inhibitory effects”.
